Results on 17 molecules are retold here after patent publication EP1157985A1 (G.D. SEARLE & CO., priority 1996, dated 1997).

The target in assay [1] is T1, Human vitronectin receptor (αvβ3) (Homo sapiens, UniProt P05106+P06756).
T1 construct: Human vitronectin receptor (αvβ3) was purified from human placenta; from tissue; host or cells: human placenta
As to the kind of experiment: Vitronectin adhesion assay (solid phase receptor assay, competition with biotinylated vitronectin). It counts as binding. To be noted: purified receptor from human placenta; 1 nM biotinylated vitronectin; highest concentration tested 1.0 x 10^-4 M; read-out: AvB3 IC50. The method, then:
VITRONECTIN ADHESION ASSAY
Human vitronectin receptor (αvβ3) was purified from human placenta as previously described [Pytela et al., Methods in Enzymology, 144:475-489 (1987)]. Human vitronectin was purified from fresh frozen plasma as previously described [Yatohgo et al., Cell Structure and Function, 13:281-292 (1988)]. Biotinylated human vitronectin was prepared by coupling NHS-biotin from Pierce Chemical Company (Rockford, IL) to purified vitronectin as previously described [Charo et al., J. Biol. Chem., 266(3):1415-1421 (1991)]. Assay buffer, OPD substrate tablets, and RIA grade BSA were obtained from Sigma (St. Louis, MO). Anti-biotin antibody was obtained from Calbiochem (La Jolla, CA). Linbro microtiter plates were obtained from Flow Labs (McLean, VA). ADP reagent was obtained from Sigma (St. Louis, MO).
This assay was essentially the same as previously reported [Niiya et al., Blood, 70:475-483 (1987)]. The purified human vitronectin receptor (αvβ3) was diluted from stock solutions to 1.0 µg/mL in Tris-buffered saline containing 1.0 mM Ca^++, Mg^++, and Mn^++, pH 7.4 (TBS^+++). The diluted receptor was immediately transferred to Linbro microtiter plates at 100 µL/well (100 ng receptor/well). The plates were sealed and incubated overnight at 4°C to allow the receptor to bind to the wells. All remaining steps were at room temperature. The assay plates were emptied and 200 µL of 1% RIA grade BSA in TBS^+++ (TBS^+++/BSA) were added to block exposed plastic surfaces. Following a 2 hour incubation, the assay plates were washed with TBS^+++ using a 96 well plate washer. Logarithmic serial dilution of the test compound and controls were made starting at a stock concentration of 2 mM and using 2 nM biotinylated vitronectin in TBS^+++/BSA as the diluent. This premixing of labeled ligand with test (or control) ligand, and subsequent transfer of 50 µL aliquots to the assay plate was carried out with a CETUS Propette robot; the final concentration of the labeled ligand was 1 nM and the highest concentration of test compound was 1.0 x 10^-4 M. The competition occurred for two hours after which all wells were washed with a plate washer as before. Affinity purified horseradish peroxidase labeled goat anti-biotin antibody was diluted 1:3000 in TBS^+++/BSA and 125 µL were added to each well. After 30 minutes, the plates were washed and incubated with OPD/H2O2 substrate in 100 mM/L Citrate buffer, pH 5.0. The plate was read with a microtiter plate reader at a wavelength of 450 nm and when the maximum-binding control wells reached an absorbance of about 1.0, the final A450 were recorded for analysis. The data were analyzed using a macro written for use with the EXCEL™ spreadsheet program. The mean, standard deviation, and %CV were determined for duplicate concentrations. The mean A450 values were normalized to the mean of four maximum-binding controls (no competitor added)(B-MAX). The normalized values were subjected to a four parameter curve fit algorithm [Rodbard et al., Int.

Assay [2] addresses T2, Human fibrinogen receptor (αIIbβ3) (Homo sapiens, UniProt P05106+P08514).
T2 construct: Human fibrinogen receptor (αIIbβ3) was purified from outdated platelets; from tissue; host or cells: outdated (human) platelets
As to the kind of experiment: Purified IIb/IIIa receptor assay (solid phase receptor assay, competition with biotinylated vitronectin). It counts as binding. The following applies: purified receptor from outdated platelets; 1 nM biotinylated vitronectin; highest concentration tested 1.0 x 10^-4 M. An excerpt: PURIFIED IIb/IIIa RECEPTOR ASSAY
Human fibrinogen receptor (αIIbβ3) was purified from outdated platelets. (Pytela, R., Pierschbacher, M.D., Argraves, S., Suzuki, S., and Rouslahti, E. "Arginine-Glycine-Aspartic acid adhesion receptors", Methods in Enzymology 144(1987):475-489.) Human vitronectin was purified from fresh frozen plasma as described in Yatohgo, T., Izumi, M., Kashiwagi, H., and Hayashi, M., "Novel purification of vitronectin from human plasma by heparin affinity chromatography," Cell Structure and Function 13(1988):281-292. Biotinylated human vitronectin was prepared by coupling NHS-biotin from Pierce Chemical Company (Rockford, IL) to purified vitronectin as previously described. (Charo, I.F., Nannizzi, L., Phillips, D.R., Hsu, M.A., Scarborough, R.M., "Inhibition of fibrinogen binding to GP IIb/IIIa by a GP IIIa peptide", J. Biol. Chem. 266(3)(1991): 1415-1421.) Assay buffer, OPD substrate tablets, and RIA grade BSA were obtained from Sigma (St. Louis, MO). Anti-biotin antibody was obtained from Calbiochem (La Jolla, CA). Linbro microtiter plates were obtained from Flow Labs (McLean, VA). ADP reagent was obtained from Sigma (St. Louis, MO).
This assay is essentially the same reported in Niiya, K., Hodson, E., Bader, R., Byers-Ward, V. Koziol, J.A., Plow, E.F. and Ruggeri, Z.M., "Increased surface expression of the membrane glycoprotein IIb/IIIa complex induced by platelet activation: Relationships to the binding of fibrinogen and platelet aggregation", Blood 70(1987):475-483. The purified human fibrinogen receptor (αIIbβ3) was diluted from stock solutions to 1.0 µg/mL in Tris-buffered saline containing 1.0 mM Ca^++, Mg^++, and Mn^++, pH 7.4 (TBS^+++). The diluted receptor was immediately transferred to Linbro microtiter plates at 100 µL/well (100 ng receptor/well). The plates were sealed and incubated overnight at 4°C to allow the receptor to bind to the wells. All remaining steps were at room temperature. The assay plates were emptied and 200 µL of 1% RIA grade BSA in TBS^+++ (TBS^+++/BSA) were added to block exposed plastic surfaces. Following a 2 hour incubation, the assay plates were washed with TBS^+++ using a 96 well plate washer. Logarithmic serial dilution of the test compound and controls were made starting at a stock concentration of 2 mM and using 2 nM biotinylated vitronectin in TBS^+++/BSA as the diluent. This premixing of labeled ligand with test (or control) ligand, and subsequent transfer of 50 µL aliquots to the assay plate was carried out with a CETUS Propette robot; the final concentration of the labeled ligand was 1 nM and the highest concentration of test compound was 1.0 x 10^-4 M. The competition occurred for two hours after which all wells were washed with a plate washer as before. Affinity purified horseradish peroxidase labeled goat anti-biotin antibody was diluted 1:3000 in TBS^+++/BSA and 125 µL were added to each well. After 30 minutes, the plates were washed and incubated with […] substrate in 100 mM/L citrate buffer, pH 5.0. The plate was read with a microtiter plate reader at a wavelength of 450 nm and when the maximum-binding control wells reached an absorbance of about 1.0, the final A450 were recorded for analysis. The data were analyzed using a macro written for use with the EXCEL™ spreadsheet program. The mean, standard deviation, and %CV were determined for duplicate concentrations. The mean A450 values were normalized to the mean of four maximum-binding controls (no competitor added)(B-MAX). The normalized values were subjected to a four parameter curve fit algorithm, [Robard et al., Int. […]

Counter-ions that a name gives are not always drawn. Where only a bound is given, the exact number is not on record here.

As for `CC(C)CC(=O)NC(Cc1ccc(NC(=O)c2cc(NC(=N)N)cc(C(F)(F)F)c2)cc1)C(=O)O` (stereo not shown) [Example 108, 4-[[[3-[(aminoiminomethyl)amino]-5-(trifluoromethyl)-phenyl]carbonyl]amino]-N-(3-methyl-1-oxobutyl) phenylalanine, trifluoroacetate salt], the IC50 in assay [1] turned out to be 4 nM; in assay [2] it was 109 nM.

As for `CC(C)OC(=O)NC(Cc1ccc(NC(=O)c2cccc(Nc3n[nH]c(N)n3)c2)cc1)C(=O)O` (racemic) [Example 103, (±) 4-[[[3-[3-amino-1H-1,2,4-triazol-5-yl)amino]-phenyl]carbonyl]amino]-N-[(1-methylethoxy) carbonyl]phenylalanine, trifluoroacetate salt], the IC50 was 269 nM in assay [1] and 3660 nM in assay [2].

Regarding `CS(=O)(=O)NC(Cc1ccc(NC(=O)c2cccc(NC(=N)N)c2)cc1)C(=O)O` (stereo not shown) [Example 48, trifluoroacetate salt], the IC50 in assay [1] stood at 0.63 nM; in assay [2] it was 15.6 nM.

Turning to `CCOC(=O)CS(=O)(=O)c1ccc(NC(=O)c2cccc(NC(=N)N)c2)cc1` [Example 80, ethyl [[4-[[[3-[(aminoiminomethyl)amino]phenyl]carbonyl]amino]phenyl]sulfonyl]acetate, monohydrate trifluoroacetate salt], the half-inhibitory concentration (IC50) in assay [1] worked out at 44200 nM; in assay [2] it was 19800 nM.

In the case of `N=C(N)Nc1cccc(C(=O)Nc2ccc(CC(N)C(=O)O)cc2)c1` (stereo not shown) [Example 65, 4-[[[3-[(aminoiminomethyl)amino]phenyl]carbonyl]amino]phenylalanine, trifluoroacetate salt], the results for the IC50 in assay [1] and in assay [2] were 4760 nM and 21900 nM, respectively.

`CCOC(=O)CCc1ccc(CNC(=O)c2cccc(C#N)c2)cc1` [Example 12, ethyl 4-[[[[3-(cyano)phenyl]-carbonyl]amino]methyl]benzenepropanoate]: the figures for the half-inhibitory concentration (IC50) in assay [1] and in assay [2] were more than 100000 nM and 69200 nM, respectively.

For `COC(=O)C(C)Oc1ccc(NC(=O)c2cccc(NC(=N)N)c2)cc1` (stereo not shown) [Example 85C], the IC50 in assay [1] was 39600 nM; in assay [2] it was 66000 nM.

With `COc1cc(NC(=O)c2cccc(NC3=NCCCN3)c2)ccc1OCC(=O)O` [Example 119, [2-methoxy-4-[[[3-[(1,4,5,6-tetrahydropyrimidin-2-yl]-amino]phenyl]carbonyl]amino]phenoxy]acetic acid, trifluoroacetate salt], the half-maximal inhibitory concentration (IC50) came to 0.4 nM in assay [1] and 772 nM in assay [2].

In the case of `CCCCS(=O)(=O)N[C@@H](Cc1ccc(NC(=O)c2cccc(NC3=NCCCCC3)c2)cc1)C(=O)O` [Example 10, N-(butylsulfonyl)-4-[[[3-[(3,4,5,6-tetrahydro-2H-azepin-7-yl)-amino]phenyl]carbonyl]amino]phenylalanine, trifluoroacetate salt], the results for the IC50 in assay [1] and in assay [2] were 1.17 nM and 26.9 nM, respectively.

On to `CC(C)OC(=O)NC(Cc1ccc(NC(=O)c2cccc(N=C(N)N)c2)cc1)C(=O)O` (stereo not shown) [Example 50, trifluoroacetate salt], for which the values for the IC50 in assay [1] and in assay [2] were 0.8 nM and 21.7 nM, respectively.

With `COc1cc(NC(=O)c2cccc(NC(=N)N)c2)ccc1CCC(=O)O` [Example 115, 4-[[[3-(aminoiminomethyl)amino]phenyl]-carbonyl]amino]-2-methoxybenzenepropanoic acid, trifluoroacetate salt], the IC50 in assay [1] amounted to 24 nM; in assay [2] it was 173 nM.

Take `N=C(N)Nc1cccc(C(=O)Nc2ccc(SCC(=O)O)cc2)c1` [Example 82, [[4-[[[3-[(aminoiminomethyl)amino]phenyl]carbonyl]amino]phenyl]thio]acetic acid, trifluoroacetate]: the figures for the IC50 in assay [1] and in assay [2] were 264 nM and 332 nM, respectively.

For `CCCCS(=O)(=O)NC(Cc1ccc(NC(=O)c2cccc(NC(=N)N)c2)cc1)C(=O)O` (stereo not shown) [Example 52, trifluoroacetate salt], the IC50 worked out at 0.33 nM in assay [1] and 1.88 nM in assay [2].

As to `N=C(N)Nc1cccc(C(=O)NCc2ccc(CCC(=O)O)cc2)c1` [Example 29, 4-[[[[3-[(aminoiminomethyl)amino]phenyl]carbonyl]amino]methyl]benzenepropanoic acid, trifluoroacetate salt], the IC50 worked out at 4000 nM in assay [1] and 1280 nM in assay [2].

As for `N=C(N)Nc1cccc(C(=O)Nc2ccc(CC(NC(=O)N3CCOCC3)C(=O)O)cc2)c1` (stereo not shown) [Example 125, 4-[[[3-[(aminoiminomethyl)amino]phenyl]carbonyl]-amino]-N-[(4-morpholinyl)carbonyl]phenylalanine, bis(trifluoroacetate) salt, monohydrate], the IC50 in assay [1] is 7 nM; in assay [2], 260 nM.

With `CC(CC(=O)O)c1ccc(NC(=O)c2cccc(NC(=N)N)c2)cc1` (stereo not drawn) [Example 31, 4-[[[3-[(aminoiminomethyl)amino]phenyl]. carbonyl]amino]-β-methylbenzenepropanoic acid, trifluoroacetate salt], the IC50 was 114 nM in assay [1] and 66.5 nM in assay [2].

Turning to `CCCCS(=O)(=O)N[C@@H](Cc1ccc(NC(=O)c2cc(NC3=NCCCCC3)cc(C(F)(F)F)c2)cc1)C(=O)O` [Example 6, N-(butylsulfonyl)-4-[[[3-[(3,4,5,6-tetrahydro-2H-azepin-7-yl)-amino]-5-(trifluoromethyl)phenyl]carbonyl]-amino]phenylalanine, trifluoroacetate salt], the results for the 50% inhibitory concentration (IC50) in assay [1] and in assay [2] were 0.51 nM and 49.5 nM, respectively.

Usually IC50 stands for the concentration needed to halve the response being measured.
